This assay addresses PARP1 (Gallus gallus, UniProt P26446).

Sequence of PARP1 (P26446 whole entry): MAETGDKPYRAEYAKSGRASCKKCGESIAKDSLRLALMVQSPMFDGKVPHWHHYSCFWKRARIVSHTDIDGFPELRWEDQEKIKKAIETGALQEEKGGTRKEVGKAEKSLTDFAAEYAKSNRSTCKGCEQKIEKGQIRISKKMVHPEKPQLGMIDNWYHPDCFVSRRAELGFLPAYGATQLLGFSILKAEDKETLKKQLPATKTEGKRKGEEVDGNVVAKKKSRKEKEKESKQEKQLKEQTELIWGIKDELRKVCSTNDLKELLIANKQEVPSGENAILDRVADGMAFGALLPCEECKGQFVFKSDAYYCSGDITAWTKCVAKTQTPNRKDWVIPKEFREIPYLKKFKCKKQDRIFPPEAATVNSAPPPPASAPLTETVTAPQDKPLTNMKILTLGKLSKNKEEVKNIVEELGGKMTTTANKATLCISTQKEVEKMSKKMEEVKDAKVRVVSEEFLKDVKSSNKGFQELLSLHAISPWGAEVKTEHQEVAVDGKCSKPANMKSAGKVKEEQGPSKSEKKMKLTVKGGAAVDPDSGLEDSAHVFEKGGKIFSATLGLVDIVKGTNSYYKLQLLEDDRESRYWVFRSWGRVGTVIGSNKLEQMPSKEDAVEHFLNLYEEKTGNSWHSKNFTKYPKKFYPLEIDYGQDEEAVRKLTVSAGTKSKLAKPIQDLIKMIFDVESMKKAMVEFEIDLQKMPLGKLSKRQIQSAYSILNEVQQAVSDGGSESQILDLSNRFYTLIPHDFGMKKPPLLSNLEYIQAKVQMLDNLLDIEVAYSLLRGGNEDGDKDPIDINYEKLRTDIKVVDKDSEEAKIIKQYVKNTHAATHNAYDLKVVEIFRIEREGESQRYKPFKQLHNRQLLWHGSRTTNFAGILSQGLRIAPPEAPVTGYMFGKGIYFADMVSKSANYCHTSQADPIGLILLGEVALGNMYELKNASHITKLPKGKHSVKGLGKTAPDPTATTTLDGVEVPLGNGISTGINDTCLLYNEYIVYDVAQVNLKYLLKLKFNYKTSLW

A word on the IC50: it is the concentration at which inhibition is half-maximal. A higher IC50 goes with lower potency. Compound `NC(=O)c1cccc2cn(-c3ccc([C@@H]4CCCNC4)cc3)nc12` [MK-4827] showed an IC50 of 50.5 nM.

In turn, `C[C@]1(c2nc3c(C(N)=O)cccc3[nH]2)CCCN1` [veliparib] registered an IC50 of 10.5 nM.

The values are drawn from PMC3528345 (Cancer research, 2012).
